Values quoted from earlier work as cited in patent publication US20230243814A1, “CHEMICAL CLAS[…] AND METHOD FOR PLANTS” (priority 2020, published 2023).
Read-outs that look alike come from different tables or passages of the source.

Key:
[1] = relative magnitude of the activity in words
[2] = relative magnitude of the activity in words; remark: listed apart in the source
[3] = relative magnitude of the activity in words; remark: listed apart in the source
[4] = relative magnitude of the activity in words; remark: listed apart in the source
[5] = target: AChE (acetylcholinesterase) (Homo sapiens, UniProt P22303); settings: relative magnitude of the activity in words
Sequence of AChE (acetylcholinesterase) (P22303 32-614, species assumed): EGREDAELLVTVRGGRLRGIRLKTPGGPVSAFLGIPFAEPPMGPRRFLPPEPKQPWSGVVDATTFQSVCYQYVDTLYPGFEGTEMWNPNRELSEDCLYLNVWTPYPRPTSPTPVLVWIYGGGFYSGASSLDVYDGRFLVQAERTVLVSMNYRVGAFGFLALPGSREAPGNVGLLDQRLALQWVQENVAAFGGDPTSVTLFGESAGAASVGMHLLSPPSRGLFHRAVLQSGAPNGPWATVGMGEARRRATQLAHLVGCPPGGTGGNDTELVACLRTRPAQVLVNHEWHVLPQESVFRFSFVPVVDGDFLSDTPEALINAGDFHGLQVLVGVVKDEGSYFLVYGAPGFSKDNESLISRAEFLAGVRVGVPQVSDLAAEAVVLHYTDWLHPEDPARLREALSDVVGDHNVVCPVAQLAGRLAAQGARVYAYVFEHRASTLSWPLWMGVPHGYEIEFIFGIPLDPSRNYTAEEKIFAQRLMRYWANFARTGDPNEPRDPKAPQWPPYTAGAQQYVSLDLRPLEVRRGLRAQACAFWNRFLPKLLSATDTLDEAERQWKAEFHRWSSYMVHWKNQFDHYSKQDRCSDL

[6] = system: brain wave (EEG) activity; settings: for beta wave boost: creativity / alpha wave boost: focus: relative magnitude in words; for alpha wave activity (EEG) / beta and other absolute wave activity (EEG) / beta wave activity (EEG): inhalation; as to alpha wave activity (EEG): test concentration or dose not given here; as to beta and other absolute wave activity (EEG): test concentration or dose not given here; as to beta wave activity (EEG): test concentration or dose not given here
[7] = relative magnitude of the activity in words; remark: listed apart in the source
[8] = relative magnitude of the activity in words; remark: listed apart in the source
GABA A = settings: relative magnitude of the activity in words
[9] = relative magnitude of the activity in words; remark: listed apart in the source

Compound	antinociceptive pain blocker [1]	analgesic pain relief [2]	sedative [4]	AChEl [5]	further results
C=CCc1ccc(O)c(OC)c1 [eugenol]	very strong				
C=C/C(C)=C/C/C=C(\C)CCC=C(C)C [alpha farnesene]	no notable	no notable			
C=C1CCC2CC1C2(C)C (stereo not drawn) [beta pinene]	no notable	moderate	moderate	no notable	anti depressant [3]: moderate; beta wave boost: creativity ([6]; women only): very strong
CC12CCC(CC1)C(C)(C)O2 [eucalyptol]	no notable			very strong	
CC(C)=CCC[C@](C)(O)[C@@H]1CC=C(C)CC1 [a bisabolol]	very strong	no notable	no notable	no notable	muscle relaxant [7]: very strong
C=CC(C)(O)CCC=C(C)CCC=C(C)C (centres unmarked) [nerolidol]	very strong	moderate	very strong	no notable	anti anxiety [8]: very strong
C=C(C)[C@H]1CC=C(C)CC1 [limonene]	no notable	moderate		agonistic	anti depressant [3]: moderate; beta wave boost: creativity ([6]; women only): very strong
CC1=CCC2C(C1)C2(C)C (centres unmarked) [3 carene]	no notable	no notable		very strong	
(+) alpha pinene					alpha wave activity (EEG) ([6]; men): no impact on alpha waves; beta and other absolute wave activity (EEG) ([6]; men): significant decreases in absolute waves such as theta, beta, low beta and high beta; alpha wave activity (EEG) ([6]; women): significantly (P<0.05) increased; beta wave activity (EEG) ([6]; women): absolute beta wave and absolute high beta wave activity significantly (P<0.05) increased
CC12CCC(C1)C(C)(C)C2O (centres unmarked) [fenchol]	no notable	no notable	moderate	no notable	
CC1=CCC2CC1C2(C)C (stereo not drawn) [alpha pinene]	no notable	weak	agonistic	very strong	GABA A Modulation (GABA A): moderate; motor stimulation (EPM) [9]: moderate; anti depressant [3]: moderate; anti anxiety [8]: moderate; alpha wave boost: focus ([6]; no gender qualifier): moderate; beta wave boost: creativity ([6]; women only): very strong
(+) beta pinene					alpha wave activity (EEG) ([6]; men): no impact on alpha waves; beta and other absolute wave activity (EEG) ([6]; men): no significant changes in the absolute waves; alpha wave activity (EEG) ([6]; women): significantly increased; beta wave activity (EEG) ([6]; women): significantly increased
C=C(C)C1CC=C(C)CC1 (single isomer, unassigned; (+)) [(+) limonene]					beta wave activity (EEG) ([6]; all subjects): increase relative high beta wave activity; alpha wave activity (EEG) ([6]; men): no increase in alpha wave activity; beta and other absolute wave activity (EEG) ([6]; men): relative high beta activity increase; alpha wave activity (EEG) ([6]; women): increased absolute fast alpha wave activity; beta wave activity (EEG) ([6]; women): decreased relative mid beta wave activity
C[C@H]1CC[C@@H](C(C)(C)O)CC2=C1CC[C@@H]2C [guiaol]	no notable		no notable	no notable	
CC1=CC[C@H](C(C)C)C=C1 [alpha phellandrene]	very strong	moderate	no notable	no notable	anti depressant [3]: moderate
C=CC(=C)CCC=C(C)C [beta myrcene]	no notable	moderate	weak	no notable	muscle relaxant [7]: moderate
CC1=CCC(=C(C)C)CC1 [terpinolene]	no notable	no notable	weak	no notable	muscle relaxant [7]: moderate; alpha wave activity (EEG) ([6]; all subjects): increase relative fast alpha wave activity; beta wave activity (EEG) ([6]; all subjects): decrease mid beta wave activity; alpha wave activity (EEG) ([6]; men): no increase in alpha wave activity; beta and other absolute wave activity (EEG) ([6]; men): decrease in relative mid beta wave activity; alpha wave activity (EEG) ([6]; women): increased absolute fast alpha wave activity; alpha wave boost: focus ([6]; women only): very strong
CC1=CC=C(C(C)C)CC1 [alpha terpinene]	no notable			very strong	
C=CC(=C)CC/C=C(\C)CCC=C(C)C [beta farnesene]	no notable	no notable			
C=CC(C)(O)CCC=C(C)C (centres unmarked) [linalool]	very strong	moderate	very strong	no notable	GABA A Modulation (GABA A): very strong; anti depressant [3]: very strong; anti anxiety [8]: very strong
C/C1=C\CC/C(C)=C/CC(C)(C)/C=C/C1 [humulene]	no notable	no notable	no notable	no notable	
C=C1CC/C=C(\C)CC[C@@H]2[C@@H]1CC2(C)C [beta caryophyllene]	no notable	moderate	no notable	no notable	anti depressant [3]: moderate; anti anxiety [8]: moderate
C=C1C2CCC(C2)C1(C)C (centres unmarked) [camphene]	no notable	no notable	moderate	no notable	
CC1=CC[C@@H](C(C)(C)O)CC1 [alpha terpineol]	very strong	very strong	moderate	no notable	muscle relaxant [7]: very strong
C=C/C(C)=C/CC=C(C)C [beta ocimene]	no notable	no notable		very strong	
